Among the data in ChEMBL document CHEMBL5126545, “Development of inhibitors targeting glycogen synthase kinase-3β for human diseases: Strategies to improve selectivity” (Eur J Med Chem, 2022) are IC50 and EC50 values, retold here.

For assay [1], the target named is T1, Glycogen synthase kinase-3 beta (Homo sapiens, UniProt P49841). Kind of assay: Inhibition of GSK-3beta (unknown origin).
The nature of assay [2]: Inhibition of GSK-3beta (unknown origin) using GS-1 as substrate incubated for 20 mins.
A short description of assay [3]: Inhibition of CDK-1/cyclin B (unknown origin) using histone H1 as substrate incubated for 20 mins by liquid scintillation counter analysis. More on the design: species or system Homo sapiens.
Assay [4] is described as follows: Inhibition of bovine brain CK2 using stathmin as substrate. Set-up: species or system Bos taurus.
Assay [5] is described as follows: Inhibition of bovine heart PKA using stathmin as substrate incubated for 20 mins by liquid scintillation counter analysis. More on the design: species or system Bos taurus.
For another assay, the target named is Protein kinase C (PKC). Nature of the assay: Inhibition of rat brain PKC using peptide PANKTPPKSPGEPAK as substrate incubated for 20 mins in presence of phosphatidyl serine.
Assay [6] addresses T1, Glycogen synthase kinase-3 beta. Kind of assay: Inhibition of GSK3-beta (unknown origin) by Kinase-Glo Max assay kit.
Assay [7] has the same target. Kind of assay: Inhibition of GSK-3beta (unknown origin) using biotin-labelled IRS-1 peptide as substrate incubated for 15 mins by ELISA based assay. (An ELISA detects its analyte on a solid surface through an enzyme-linked reagent.)
Assay [8] shares this target. Nature of the assay: Inhibition of GSK-3beta (unknown origin) using peptide YRRAAVPPSPSLSRHSSPHQ(pS)EDEEE as substrate incubated for 5 to 60 mins by ADP-Glo kinase assay. (ADP-Glo first removes unused ATP, then detects ADP through luciferase.)
The test system of the next assay is SH-SY5Y. Nature of the assay: Neuroprotective activity against human SH-SY5Y cells pretreated for 1 hr followed by muMAbeta42 measured after 72 hrs. The class given is functional, cell-based.
Assay [9] in a line: Inhibition of recombinant rabbit GSK-3beta using peptide YRRAAVPPSPSLSRHSSPHQ(pS)EDEEE as substrate incubated for 10 mins. More on the design: species or system Oryctolagus cuniculus.
Assay [10] deals with T1, Glycogen synthase kinase-3 beta. Kind of assay: Inhibition of human recombinant GSK3-beta.

*1 amine or outer side, *2 acyl side, *3 side chain or, on linkers, in order; H or OH if unused. Where a SMILES comes first, the peptide text is derived from it. [ ]: non-standard residue; d: D form. The star is where a group is joined. X1 = C[C@H](N[*:1])C(=O)C1CCC[C@H]1C(=O)[*:2]; Myristoyl = CCCCCCCCCCCCCC(=O)*

T1 sequence (P49841 whole entry): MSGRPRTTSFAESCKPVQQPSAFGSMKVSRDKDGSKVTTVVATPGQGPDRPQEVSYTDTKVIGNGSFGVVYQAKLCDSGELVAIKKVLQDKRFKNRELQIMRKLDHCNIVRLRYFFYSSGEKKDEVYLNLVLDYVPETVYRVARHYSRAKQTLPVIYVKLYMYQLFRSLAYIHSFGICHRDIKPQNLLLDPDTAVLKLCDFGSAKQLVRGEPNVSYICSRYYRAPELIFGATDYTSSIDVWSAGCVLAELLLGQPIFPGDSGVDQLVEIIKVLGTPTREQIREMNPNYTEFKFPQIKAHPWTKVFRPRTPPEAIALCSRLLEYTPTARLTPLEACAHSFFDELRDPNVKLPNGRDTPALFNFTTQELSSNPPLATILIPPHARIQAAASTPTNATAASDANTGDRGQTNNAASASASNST

A word on the IC50: it is the concentration needed to halve the response being measured. Consider `Cc1ccc(C(=O)CCl)s1`, for which, in assay [1], the IC50 was over 100 µM.
`CCn1sc(=O)n(CC)c1=O` returned a half-maximal inhibitory concentration (IC50) in assay [2] of 25 µM.
Still for that read-out and setting: the figure for `CCn1sc(=O)n(CC)c1=S` is 20 µM; for `Cn1sc(=O)n(-c2cccc3ccccc23)c1=O` it is 3 µM.
As for `Cn1sc(=O)n(Cc2ccccc2)c1=O`, the IC50 (in assay [3]; in assay [4]; in [5]; on Protein kinase C (PKC)) was over 100 µM throughout.
Compound `O=C(CCl)c1cc(Cl)c(Cl)s1` had a 50% inhibitory concentration (IC50) in assay [1] of 3 µM.
For `FC(F)(F)c1ccc(/C=N/Nc2nnc3n2N=C(c2ccc(Cl)cc2)CS3)cc1`, in assay [6], the half-maximal inhibitory concentration (IC50) was 0.883 µM.
Regarding `O=C(O)CCNc1cc(N2CCN(c3ccc(F)cc3)CC2)c2noc3c2c1C(=O)c1ccccc1-3`, in [7], the 50% inhibitory concentration (IC50) is 8 µM.
In turn, `Cn1cc(C2=C(c3coc4ccccc34)C(=O)NC2=O)c2cc(F)ccc21` had an IC50 in assay [1] of 0.0004 µM.
Compound `O=C1c2ccccc2-c2onc3c(N4CCN(c5ccc(O)cc5)CC4)cc(NCCP(=O)(O)O)c1c23` came in with an IC50 in [7] of 1 µM.
In assay [1], `CN(c1ncnc2[nH]c3cc(Cl)ccc3c12)C1CCCN(C(=O)CC#N)C1` (centres undefined) registered an IC50 of 2 µM.
The compound `O=C(O)c1ccc(N2CCN(c3cc(NCCP(=O)(O)O)c4c5c(onc35)-c3ccccc3C4=O)CC2)cc1` came in with a concentration for half-maximal inhibition (IC50) in assay [7] of 1 µM.
As to `COc1ccc(-c2cc(=O)c3c(OC)c([C@@H]4O[C@H](C(=O)N[C@@H](C)C(F)(F)F)[C@@H](O)[C@H](O)[C@H]4O)c(OC)cc3o2)cc1OC`, the IC50 in assay [8] turned out to be 2 µM.
In assay [1], `CC(C)Oc1cccc(-c2ccc3cnc(C(=O)NCC4CCOCC4)n3c2)c1` yielded a concentration for half-maximal inhibition (IC50) of 0.072 µM.
For orientation: EC50 means the concentration that produces a half-maximal response. In assay [8], `COc1ccc(-c2cc(=O)c3c(OC)c([C@@H]4O[C@H](C(=O)N[C@H](C)C(F)(F)F)[C@@H](O)[C@H](O)[C@H]4O)c(OC)cc3o2)cc1OC` showed an IC50 of 0.6 µM. For the same compound, the EC50 in the assay on SH-SY5Y was 9 µM.
Take `Nc1nccc(CNC(=O)c2ccc3c(c2)/C(=C/Cc2cccc(C(=O)O)c2)C(=O)N3)n1`: in assay [1], the IC50 was 0.003 µM.
As to `COc1ccc(-c2cc(=O)c3c(OC)c([C@@H]4O[C@H](C(=O)NC(C)C)[C@@H](O)[C@H](O)[C@H]4O)c(OC)cc3o2)cc1OC`, half-maximal inhibition in assay [8] (IC50) required 5 µM.
On the same count and under the same terms, the figure for `COc1ccc(-c2cc(=O)c3c(OC)c([C@@H]4O[C@H](C(=O)NCc5ccccc5)[C@@H](O)[C@H](O)[C@H]4O)c(OC)cc3o2)cc1OC` is 16 µM.
In assay [7], `COc1ccc(N2CCN(c3cc(NCCC(=O)O)c4c5c(onc35)-c3ccccc3C4=O)CC2)cc1` had an IC50 of 18 µM.
For `CC(C)Oc1cccc(-c2ccc3[nH]nc(C(=O)NCC4CCOCC4)c3c2)c1`, it took 0.004 µM to reach half-maximal inhibition in assay [1] (IC50).
The same measure, in the same setting: the same measure for `C[S+]([O-])CCCCCCN=C=S` (centres undefined): 70 µM.
With `CCCCCCCCCCCCCC(=O)NCC(=O)N[C@@H](CCCCN)C(=O)N[C@@H](CCC(=O)O)C(=O)N[C@@H](C)C(=O)C1CCC[C@H]1C(=O)N1CCC[C@H]1C(=O)N[C@@H](C)C(=O)N1CCC[C@H]1C(=O)N1CCC[C@H]1C(=O)N[C@@H](C)C(=O)N[C@@H](CO)C(=O)N1CCC[C@H]1C(=O)N1CCC[C@H]1C(N)=O` (some centres undefined) (Myristoyl-GKE[X1]PAPPASPP-NH2), the half-inhibitory concentration (IC50) in assay [9] came to 40 µM.
Take `O=c1cc(-c2ccc(O)c(O)c2)oc2cc(O)c([C@@H]3O[C@H](CO)[C@@H](O)[C@H](O)[C@H]3O)c(O)c12` [ISOORIENTIN]: in the assay with SH-SY5Y, the EC50 came out at 47 µM.
Consider `COc1cc2c(c(OC)c1OC)-c1c(cc3c(c1OC)OCO3)C[C@@H](C)[C@@H](C)C2` [KADSURANIN], for which the IC50 in assay [10] came to 0.081 µM.
The same measure, in the same setting: the same measure for `COc1cc2c(c(OC)c1OC)-c1c(cc3c(c1OC)OCO3)C[C@H](C)[C@H](C)C2` [WUWEIZISU B]: 0.073 µM.
